Measurements taken from the supplement of paper PMC5303821, “Major sulfonate transporter Soa1 in Saccharomyces cerevisiae and considerable substrate diversity in its fungal family” (Nature Communications, 2017).

Legend:
Settings in all cases: sulfur source concentration 200 µM; S. cerevisiae S288C/BY sul1Δ sul2Δ soa1Δ with transporter ortholog inserted at SOA1 locus; sulfur-free B medium, 4% glucose, pH 6.5, sole sulfur source
[1] = tested on: Metarhizium robertsii_XP_007823832; assay: maximal growth rate with compound as sole sulfur source (OD600 per h); higher = better growth / uptake of the sulfur source
Description: (§1)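 S. cerevisiae sul1Δ sul2Δ soa1Δ strains expressing 20 fungal SOA1 orthologs (or no transporter, 'soa1 del') were grown in liquid sulfur-free B medium, 4% glucose, pH 6.5 (7 mM K2HPO4). The strains were sulfur-starved for 3 days beforehand. Each sulfur compound was the sole sulfur source at 200 µM (sulfate also at 40 mM). OD600 curves of duplicate cultures were averaged and fitted (logistic / Richards, GroFit) to give maximal growth rate, maximal density and lag phase; temperature not stated.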

[2] = tested on: Ogataea parapolymorpha_XP_013935289; assay: as above
Description: as §1

[3] = tested on: Aspergillus nidulans_CBF74694; assay: as above
Description: as §1

[4] = tested on: Saccharomyces uvarum_SOA2; assay: as above
Description: as §1

[5] = tested on: Metarhizium robertsii_XP_007821441; assay: as above
Description: as §1

[6] = tested on: Ogataea parapolymorpha_XP_013932458; assay: as above
Description: as §1

[7] = tested on: Fusarium oxysporum_ENH65823; assay: as above
Description: as §1

soa1 del = assay: as above
Description: as §1

[8] = tested on: Aspergillus nidulans_XP_661711; assay: as above
Description: as §1

[9] = tested on: Aspergillus nidulans_XP_681611; assay: as above
Description: as §1

[10] = tested on: Saccharomyces eubayanus_SOA1; assay: as above
Description: as §1

[11] = tested on: Aspergillus nidulans_XP_661733; assay: as above
Description: as §1

[12] = tested on: Saccharomyces cerevisiae_SOA1; assay: as above
Description: as §1

[13] = tested on: Aspergillus nidulans_XP_660563; assay: as above
Description: as §1

[14] = tested on: Aspergillus nidulans_CBF80346; assay: as above
Description: as §1

[15] = tested on: Ogataea parapolymorpha_XP_013936897; assay: as above
Description: as §1

[16] = tested on: Saccharomyces eubayanus_SOA2; assay: as above
Description: as §1

[17] = tested on: Aspergillus nidulans (IAM 2006)_astA; assay: as above
Description: as §1

[18] = tested on: Saccharomyces uvarum_SOA1; assay: as above
Description: as §1

[19] = tested on: Aspergillus nidulans_XP_660670; assay: as above
Description: as §1

[20] = tested on: Metarhizium robertsii_XP_007822519; assay: as above
Description: as §1

[21] = tested on: Ogataea parapolymorpha_XP_013935289; assay: lag phase before growth; higher = slower start of growth
Description: as §1

[22] = tested on: Saccharomyces uvarum_SOA2; assay: as above
Description: as §1

[23] = tested on: Saccharomyces eubayanus_SOA1; assay: as above
Description: as §1

[24] = tested on: Saccharomyces cerevisiae_SOA1; assay: as above
Description: as §1

[25] = tested on: Saccharomyces uvarum_SOA1; assay: as above
Description: as §1

[26] = tested on: Ogataea parapolymorpha_XP_013935289; assay: maximal culture density with compound as sole sulfur source (OD600); higher = better growth
Description: as §1

[27] = tested on: Fusarium oxysporum_ENH65823; assay: as above
Description: as §1

[28] = tested on: Aspergillus nidulans_XP_661711; assay: as above
Description: as §1

[29] = tested on: Aspergillus nidulans_XP_681611; assay: as above
Description: as §1

[30] = tested on: Saccharomyces eubayanus_SOA1; assay: as above
Description: as §1

[31] = tested on: Saccharomyces uvarum_SOA1; assay: as above
Description: as §1

[32] = tested on: Aspergillus nidulans_XP_660670; assay: as above
Description: as §1

[33] = tested on: Metarhizium robertsii_XP_007822519; assay: as above
Description: as §1

[34] = tested on: Metarhizium robertsii_XP_007822519; assay: lag phase before growth; higher = slower start of growth
Description: as §1

Row | SMILES | maximal growth rate [1] | maximal growth rate [2] | maximal growth rate [3] | maximal growth rate [4] | maximal growth rate [5] | maximal growth rate [6] | maximal growth rate [7] | maximal growth rate (soa1 del) | maximal growth rate [8] | maximal growth rate [9] | maximal growth rate [10] | maximal growth rate [11] | maximal growth rate [12] | maximal growth rate [13] | maximal growth rate [14] | maximal growth rate [15] | maximal growth rate [16] | maximal growth rate [17] | maximal growth rate [18] | maximal growth rate [19] | maximal growth rate [20] | lag phase before growth [21] | lag phase before growth [22] | lag phase before growth [23] | lag phase before growth [24] | lag phase before growth [25] | maximal culture density [26] | maximal culture density [27] | maximal culture density [28] | maximal culture density [29] | maximal culture density [30] | maximal culture density [31] | maximal culture density [32] | maximal culture density [33] | lag phase before growth [34]
1 | CCCCS(=O)(=O)O [Butanesulfonate] | 0.0152 | 0.087 | 0.00269 | 0.0878 | 0.00375 | 0.00411 | 0.00349 | 0.00398 | 0.00392 | 0.00666 | 0.0734 | 0.00595 | 0.0882 | 0.00657 | 0.00447 | 0.0049 | 0.0837 | 0.0185 | 0.0795 | 0.00393 | 0.00366 | 6.98 h | 12.7 h | 9.71 h | 9.34 h | 8.4 h | 1.6 | 0.241 | 0.267 | 0.368 | 1.57 | 1.59 | 0.267 | 0.261 | 
2 | N[C@@H](CS(=O)(=O)O)C(=O)O [L-cysteic acid] | 0.028 | 0.035 | 0.003 | 0.00261 | 0.00544 | 0.00397 | 0.01 | 0.00337 | 0.00852 | 0.00678 | 0.00648 | 0.0304 | 0.037 | 0.00641 | 0.00644 | 0.00557 | 0.00291 | 0.0282 | 0.00754 | 0.00837 | 0.00861 | 10.9 h |  |  | 12.6 h | 6.98 h | 1.51 | 1.16 | 1.16 | 0.861 | 0.561 | 1.25 | 1.13 | 1.38 | 17.9 h
